Experimental data reported in ChEMBL document CHEMBL1142639, “New triterpenoid saponins from the sponge Melophlus isis” (2000).
≈ marks a conversion by molar mass, not a printed value. Calls of active or inactive are those of the source. The rule behind the calls is not given here.

Columns and labels:
[1] = system: Photobacterium phosphoreum; assay: Antibacterial activity against Photobacterium phosphoreum at 100 ug/mL by paper disk method; type: functional, organism-based
K562 = assay: Cytotoxicity against human K562 cells; type: functional; details: read-out: LC50 (the source's name)
[2] = system: Photobacterium leiognathi; assay: Antibacterial activity against Photobacterium leiognathi at 100 ug/mL by paper disk method; type: functional, organism-based
Vibrio harveyi = assay: Antibacterial activity against Vibrio harveyi at 100 ug/mL by paper disk method; type: functional, organism-based

SMILES | Activity [1] | CC50 (K562) [µg/mL] | Activity [2] | Activity (Vibrio harveyi) | A ctivity [2]
CO[C@@H]1C[C@H]([C@H](C)CC(=O)C=C(C)C)[C@@]2(C)CC[C@@]3(O)C(=C12)CC[C@H]1C(C)(C)[C@@H](O[C@@H]2OC[C@@H](O[C@@H]4O[C@H](CO)[C@H](O)[C@H](O)[C@H]4NC(C)=O)[C@H](O)[C@H]2O[C@@H]2O[C@H](CO[C@@H]4O[C@H](CO)[C@@H](O)[C@H](O)[C@H]4O[C@@H]4O[C@H](CO)[C@@H](O)[C@H](O)[C@H]4O)[C@@H](O)[C@H](O)[C@H]2NC(C)=O)CC[C@@]13C [SARASINOSIDE H2] | inactive | > 100 | inactive | inactive | 
CC(=O)N[C@H]1[C@H](O[C@@H]2CO[C@@H](O[C@H]3CC[C@]4(C)C5=C(CC[C@H]4C3(C)C)[C@@H]3CC[C@H]([C@H](C)CC(=O)C=C(C)C)[C@@]3(C)CC5)[C@H](O[C@@H]3O[C@H](CO[C@@H]4O[C@H](CO)[C@@H](O)[C@H](O)[C@H]4O[C@@H]4O[C@H](CO)[C@@H](O)[C@H](O)[C@H]4O)[C@@H](O)[C@H](O)[C@H]3NC(C)=O)[C@H]2O)O[C@H](CO)[C@H](O)[C@@H]1O [SARASINOSIDE A1] |  | 6.5 (≈ 5.04 µM) |  |  | 
CC(=O)N[C@H]1[C@H](O[C@@H]2CO[C@@H](O[C@H]3CC[C@@]4(C)[C@@H](CCC5=C6[C@@H](O)C[C@H]([C@H](C)CC(=O)C=C(C)C)[C@@]6(C)CC[C@@]54O)C3(C)C)[C@H](O[C@@H]3O[C@H](CO[C@@H]4O[C@H](CO)[C@@H](O)[C@H](O)[C@H]4O[C@@H]4O[C@H](CO)[C@@H](O)[C@H](O)[C@H]4O)[C@@H](O)[C@H](O)[C@H]3NC(C)=O)[C@H]2O)O[C@H](CO)[C@H](O)[C@@H]1O [SARASINOSIDE I1] | inactive | > 100 |  | inactive | inactive
CC(=O)N[C@H]1[C@H](O[C@@H]2CO[C@@H](O[C@H]3CC[C@]4(C)C5=C(CC[C@H]4C3(C)C)C3=CC[C@H]([C@H](C)CC(=O)C=C(C)C)[C@@]3(C)CC5)[C@H](O[C@@H]3O[C@H](CO[C@@H]4O[C@H](CO)[C@@H](O)[C@H](O)[C@H]4O[C@@H]4O[C@H](CO)[C@@H](O)[C@H](O)[C@H]4O)[C@@H](O)[C@H](O)[C@H]3NC(C)=O)[C@H]2O)O[C@H](CO)[C@H](O)[C@@H]1O [SARASINOSIDE A3] |  | 17.1 (≈ 13.3 µM) |  |  | 
CO[C@H]1C[C@H]([C@H](C)CC(=O)C=C(C)C)[C@@]2(C)CC[C@@]3(O)C(=C12)CC[C@H]1C(C)(C)[C@@H](O[C@@H]2OC[C@@H](O[C@@H]4O[C@H](CO)[C@H](O)[C@H](O)[C@H]4NC(C)=O)[C@H](O)[C@H]2O[C@@H]2O[C@H](CO[C@@H]4O[C@H](CO)[C@@H](O)[C@H](O)[C@H]4O[C@@H]4O[C@H](CO)[C@@H](O)[C@H](O)[C@H]4O)[C@@H](O)[C@H](O)[C@H]2NC(C)=O)CC[C@@]13C [SARASINOSIDE I2] | inactive | > 100 | inactive | inactive | 
CC(=O)N[C@H]1[C@H](O[C@@H]2CO[C@@H](O[C@H]3CC[C@@]4(C)[C@@H](CCC5=C6[C@H](O)C[C@H]([C@H](C)CC(=O)C=C(C)C)[C@@]6(C)CC[C@@]54O)C3(C)C)[C@H](O[C@@H]3O[C@H](CO[C@@H]4O[C@H](CO)[C@@H](O)[C@H](O)[C@H]4O[C@@H]4O[C@H](CO)[C@@H](O)[C@H](O)[C@H]4O)[C@@H](O)[C@H](O)[C@H]3NC(C)=O)[C@H]2O)O[C@H](CO)[C@H](O)[C@@H]1O [SARASINOSIDE H1] | inactive | > 100 | inactive | inactive | 
